In patent US10123861B2, “Bag for packaging diluted animal semen suitable for artificial insemination, in particular of porcine species; and system comprising same” (IMV TECHNOLOGIES, priority 2014, dated 2018):

Test: Amount of triclosan released from the bag into the dilution extender (LC-MS-MS)
Type: physicochemical
Settings: bag of Example 3; for Amount of triclosan released into the dose / Proportion of triclosan released into the dose: five days, 17° C.; for Amount of triclosan released into the dose: full dose 70 ml; for Proportion of triclosan released into the dose: relative to approximately 532 μg in parts facing the pouch
Description: A description will now be given of the trials with the bag of Example 3 to determine the amount of triclosan released into the dose of diluted semen such as 27 contained in the pouch such as 14 of that bag.
To simplify the trials, it was not a dose of diluted semen which was preserved in the bag but only dilution extender.
In this case, the dilution extender 53 (hereinafter “extender A”) and a conventional dilution extender containing an antibiotic (hereinafter “extender B”) were used.
One bag of Example 3 is filled with a dose of extender A and one bag of Example 3 with a dose of extender B.
Next the bags are left to rest for five days in the usual preservation conditions, that is to say 17° C. in horizontal position.
Next, the extender contained in each bag is analyzed, in order to determine the concentration of triclosan.
This analysis is made by liquid chromatography tandem mass spectrometry (LC-MS-MS method).
Based on the concentrations obtained, the amount of triclosan released is determined in a full dose provided to be contained in the bag, that is to say 70 ml.
It will be noted that the weight of triclosan taken into account in the sheets such as 11 and 12 of the bag of Example 3 for calculating the proportion released is not the weight of triclosan in the entirety of these sheets, but only in the parts facing the pouch such as 14. Here, these parts weigh approximately 1.835 g (determined after cutting out and weighing). As there are 29 mg of triclosan for 100 g of sheet. The amount of triclosan contained in these parts is approximately 532 μg.

[1] = Extender A (without antibiotic)
[2] = Extender B (containing an antibiotic)

Oc1cc(Cl)ccc1Oc1ccc(Cl)cc1Cl [triclosan]
Amount of triclosan released into the dose [1]: 2.7 µg
Proportion of triclosan released into the dose [1]: 0.5%
Amount of triclosan released into the dose [2]: 1.9 µg
Proportion of triclosan released into the dose [2]: 0.35%
amounts released into the dilution extenders (comment on the release results): around 1%
